{
  "source": "patent US20120164104A1",
  "about": "“Composition and Methods of Treating Viral Infections and Viral Induced Tumors” (Chimerix, Inc., priority 2009, published 2012)",
  "type_in_all_cases": "cell-based",
  "key": {"COS-7 cells": {"tested_on": "COS-7 cells", "test": "DNA replication of uninfected COS-7 cells (BrdU assay)", "conditions": "Chlorocebus aethiops", "method": "FIG. 14 illustrates the effect of increasing concentrations of CMX001 on replication of COS-7 cells. DNA replication was determined by BrdU incorporation. Medium with indicated CMX001 concentrations was added to COS-7 cells and absorbance measured 72 h post seeding. Absorbance for untreated cells was set as 100%. DNA synthesis was quantified by the colorimetric measurement of BrdU incorporation into DNA in proliferating cells using the ‘Cell proliferation ELISA, BrdU’ kit (Roche). COS-7 cells were seeded in 96 well plates and CMX001 was added at indicated concentrations. Absorbance at 450 nm (sample) and at 650 nm (background) was determined 2 h after addition of the substrate."}, "COS-7": {"tested_on": "COS-7", "test": "Inspection of COS-7 by phase contrast microscopy", "conditions": "7 day exposure to CMX001 0.6 μM"}, "BKV(Dunlop) [1]": {"tested_on": "BKV(Dunlop)", "test": "BKV early and late protein expression in infected RPTECs (immunofluorescence, western blot)", "conditions": "for LTag staining reduced / decrease of VP1 by western blotting: CMX001 0.31 μM", "method": "For FIG. 1(b), indirect immunofluorescence of untreated and CMX001 treated BKV-infected RPTECs, methanol fixed 72 h pd. and stained with rabbit anti-agnoprotein serum (green) for visualization of the late agnoprotein and with the SV40 LTag monoclonal Pab416 for visualization og BKV LTag (red). Cell density is shown by Drac 5 staining in blue.\nFor FIG. 4(a), indirect immunofluorescence of untreated and CMX001 treated BKV-infected RPTECs, methanol fixed 48 and 72 h p.i. and stained with rabbit anti-agnoprotein serum (green) for visualization of the late agnoprotein and with the SV40 LTag monoclonal Pab416 for visualization of BKV LTag (red). For FIG. 4(b), cell extracts from CMX001-treated and untreated BKV-infected RPTECs were harvested 48 and 72 h p.i. and western blot performed with rabbit anti-BKV VP1, anti-agnoprotein serum and a monoclonal antibody directed against the housekeeping protein GAPDH.\n(§1) Primary human renal proximal tubule epithelial cells (RPTECs), BKV(Dunlop) and all methods as previously described by Bernhoff et al (See Bernhoff et al., Cidofovir inhibits polyomavirus BK replication in human renal tubular cells downstream of viral early gene expression, Am J Transplant 8, 1413-1422 (2008).) Only one exception, quantitative PCR (qPCR) to quantify intracellular or extracellular BKV DNA load was performed with a different primer/probe set also targeting the LTag gene (See Hirsch, et al., J. Prospective study of polyomavirus type BK replication and nephropathy in renal-transplant recipients, N Engl J. Med., 347, 488-496 (2002)). Before each experiment, CMX001 was freshly dissolved to 1 mg/ml in methanol/water/ammonium hydroxide (50/50/2). It was further diluted in RPTEC growth medium.\nTo investigate expression of LTag at the single-cell level, immunofluorescence staining at 48 and 72 h p.i was performed. At 48 h p.i. the number of BKV positive cells was almost the same in CMX001 and untreated wells. At 72 h p.i., the CMX001 treated cells seemed to express less LTag pro cell (FIG. 4a)."}, "JCV Mad-4": {"tested_on": "JCV Mad-4", "test": "Extracellular JCV load in JCV-infected astrocyte cells (qPCR)", "conditions": "in the presence of CMX001", "method": "FIG. 17 illustrates the effect of increasing concentrations of CMX001 on extracellular viral load in astrocytes. Supernatants from JCV-infected PDA cells treated with indicated concentrations of CMX001 were harvested at indicated timepoints after infection and JCV load measured by qPCR. Data are presented as JCV load in log geq/ml. COS-7 or astrocyte cells were infected at a confluence of 60-70% with JCV(Mad-4) at an estimated TCID50 of 0.2. After 2 h incubation at 37° C., supernatants were replaced with fresh medium without or with increasing concentration CMX001. […] JCV loads were quantified after DNA extraction from 100 ul cell culture supernatants and the Corbett X-tractor Gene and the Corbett VX reagents (Qiagen, Hombrechtikon, Switzerland). The real-time PCR protocol for detection of JCV DNA samples targets the JCV large T coding sequence and has been described elsewhere (5). To examine the effect of CMX001 on JCV progeny levels over time, supernatants of treated and untreated cells were harvested at the indicated timepoints. To determine input virus samples were taken at 1 d.p.i. In the course of the infection for untreated cells, the extracellular JCV load changes approximately 1 log over the period of 7 days (3.22×107 vs 2.30×108 geq/ml)."}, "BKV(Dunlop) [2]": {"tested_on": "BKV(Dunlop)", "test": "Extracellular BKV load in supernatants of BKV-infected RPTECs (qPCR)", "method": "For FIG. 1(a), RPTEC supernatants were harvested 72 h p.i. i.e. 70 h post start of treatment with indicated CMX001 concentrations. BKV load was measured by […] and input virus subtracted. DNA load in untreated cells (1.05E+09 Geq/ml) was set as 100%.\nFIG. 5 illustrates the influence of CMX001 0.31 μM on BKV extracellular BKV load. […] Supernatants from CMX001-treated and untreated BKV-infected RPTECs were harvested at indicated timepoints after infection and BKV load measured by qPCR. Data are presented as BKV load in Geq/ml.\nFor FIG. […] Supernatants were harvested 72 h p.i. and extracellular BKV load measured by qPCR. Data are presented in percent of untreated cells set at 100%.\nas §1\nTo investigate the effect of CMX001 on BKV progeny, increasing concentrations of CMX001 were added 2 h p.i. and supernatants harvested at 72 h p.i. It was observed that CMX001 reduced the extracellular BKV load in a concentration dependent manner (See FIG. 1 a). […] With CMX001 0.31 uM an approximately 60% decrease in BKV agnoprotein expressing cells was seen. The number of cells expressing LTag was less reduced but the signal intensity was lower than in untreated cells. […] The conclusion is that CMX001 reduced the expression of early and late BKV proteins and the production of extracellular progeny but also seemed to affect the proliferation rate of RPTECs at higher concentrations."}},
  "note": "Entries after “also recorded” stand apart in the source; their conditions may differ. Like-named read-outs stand apart in the source and are kept apart here.",
  "data": [
    {"smiles": "CCCCCCCCCCCCCCCCOCCCOP(=O)(O)CO[C@H](CO)Cn1ccc(N)nc1=O", "note": "[CMX001]", "values": [
      {"measurement": "IC50", "setting": "COS-7 cells", "value": "~600", "unit": "nM"},
      {"measurement": "signs of impaired viability", "setting": "COS-7", "value": "did not reveal any signs of impaired viability"},
      {"measurement": "BKV-infected cells by immunofluorescence staining", "setting": "BKV(Dunlop) [1]; 5 uM CMX001, 72 h p.i.", "value": "only few weakly LTag stained cells but no agnoprotein expressing cells were observed"},
      {"measurement": "BKV-infected cells by immunofluorescence staining", "setting": "BKV(Dunlop) [1]; 10 uM CMX001, 72 h p.i.", "value": "no BKV-infected cell was observed"},
      {"measurement": "LTag staining reduced", "setting": "BKV(Dunlop) [1]; 48 h p.i.", "value": 33, "unit": "%"},
      {"measurement": "decrease of VP1 by western blotting", "setting": "BKV(Dunlop) [1]; 48 h p.i.", "value": 86, "unit": "%"},
      {"measurement": "LTag staining reduced", "setting": "BKV(Dunlop) [1]; 72 h p.i.", "value": 30, "unit": "%"},
      {"measurement": "decrease of VP1 by western blotting", "setting": "BKV(Dunlop) [1]; 72 h p.i.", "value": 63, "unit": "%"},
      {"measurement": "decrease in BKV agnoprotein expressing cells", "setting": "BKV(Dunlop) [1]; CMX001 0.31 uM, immunofluorescence 72 h p.i.", "value": "approximately 60%"},
      {"measurement": "change in JCV load over 7 days", "setting": "JCV Mad-4", "value": "less than 1 log"},
      {"measurement": "IC90", "setting": "BKV(Dunlop) [2]; Betapolyomavirus hominis, Epithelial cell, primary human renal proximal tubule epithelial cells (conclusion), read-out: IC90 against BK virus replication", "value": 310, "unit": "nM"},
      {"measurement": "extracellular BKV load (timecourse)", "setting": "BKV(Dunlop) [2]; CMX001 0.31 μM, 48 h p.i.", "value": "only input virus could be detected; also recorded: only input was detectable"},
      {"measurement": "BKV load in supernatants from treated cells", "setting": "BKV(Dunlop) [2]; CMX001 0.31 μM, 72 h p.i.", "value": "1.13×10^8 Geq/ml"},
      {"measurement": "BKV load in supernatants lower than in untreated cells (timecourse)", "setting": "BKV(Dunlop) [2]; CMX001 0.31 μM, 72 h p.i.", "value": 84, "unit": "%"},
      {"measurement": "IC90", "setting": "BKV(Dunlop) [2]; RPTEC, RPTECs, added 2 h p.i., harvested 72 h p.i., viral input subtracted, read-out: inhibitory concentration IC90 (extracellular BKV load)", "value": 310, "unit": "nM"},
      {"measurement": "effect of pre-treatment on BKV load 72 h p.i.", "setting": "BKV(Dunlop) [2]; RPTECs treated for 4 hours, ending 20 hours before infection", "value": "hardly any effect; also recorded: did not inhibit BKV replication"},
      {"measurement": "reduction of viral load by pre-treatment", "setting": "BKV(Dunlop) [2]; RPTECs treated for 23 hours until one hour before infection, 72 h p.i.", "value": "about 50%"}
    ]}
  ]
}
